Test results published in the supplement of paper PMC12317010.
Structures can show the parent of a compound that is named as a salt.

Assay: collision cross section in nitrogen (drift tube, single-field); higher = larger gas-phase ion size
[1] = ion type: [M+Na], ion source: ESI, ion mode: Positive
[2] = ion type: [M+H], ion source: APCI, ion mode: Positive
[3] = ion type: [M+H], ion source: ESI, ion mode: Positive
[4] = ion type: [M-H], ion source: ESI, ion mode: Negative
[5] = ion type: [M+], ion source: APCI, ion mode: Positive
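Also: chemical standards at 10 µM analysed by drift tube IMS-QTOF MS in about 3.95 torr nitrogen, mean of duplicate injections differing ≤1%, mass error below 10 ppm.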

| Compound | collision cross section in nitrogen [1] [Å²] | collision cross section in nitrogen [2] [Å²] | collision cross section in nitrogen [3] [Å²] | collision cross section in nitrogen [4] [Å²] | collision cross section in nitrogen [5] [Å²] |
| --- | --- | --- | --- | --- | --- |
| CCSCc1ccccc1OC(=O)NC [Ethiofencarb] | 153.7 |  |  |  |  |
| CN(C)C(=O)C(c1ccccc1)c1ccccc1 [Diphenamid] | 164.6 | 154.1 | 154.7 |  |  |
| CCCCCCCc1ccc(O)cc1 [4-Heptylphenol] |  |  |  | 157.1 |  |
| CNC(=O)Oc1cccc(N=CN(C)C)c1 [Formetanate hydrochloride] |  |  | 156 |  |  |
| CC(=O)Nc1nnc(S(N)(=O)=O)s1 [Acetazolamide] |  |  |  | 137.8 |  |
| O=C(OCc1ccccc1)c1ccc(O)cc1 [Benzyl 4-hydroxybenzoate] |  |  |  | 158.5 |  |
| O=c1[nH]sc2ccccc12 [1,2-Benzisothiazolin-3-one] |  |  |  | 127.2 |  |
| CC(=O)Nc1ccc2c(c1)Cc1cc(NC(C)=O)ccc1-2 [2,7-Acetylaminofluorene] | 180.9 | 176.3 | 175.7 | 174.7 | 167.4 |
| CCCCOC(=O)c1ccc(O)cc1 [Butylparaben] |  |  |  | 149.4 |  |
| CN1C(=O)CCS(=O)(=O)C1c1ccc(Cl)cc1 (stereo not given) [Chlormezanone] |  |  |  | 154.1 |  |
| CCCCC(CC)COC(=O)c1c(Br)c(Br)c(Br)c(Br)c1C(=O)OCC(CC)CCCC (stereo not given) [Bis(2-ethylhexyl) tetrabromophthalate] | 240.6 |  |  |  |  |
| CCCN(CCC)c1c([N+](=O)[O-])cc(C(C)C)cc1[N+](=O)[O-] [Isopropalin] |  | 172.4 |  | 175.1 |  |
| CC(C)(C)C(=O)C(Oc1ccc(Cl)cc1)n1cncn1 (stereo not given) [Triadimefon] |  | 174.6 | 173.6 | 167.7 |  |
| CCCN(CC)CC1COC2(CCC(C(C)(C)C)CC2)O1 (stereo not given) [Spiroxamine] |  |  | 176.6 |  |  |
| COc1cc(OC)nc(Sc2cccc(Cl)c2C(=O)O)n1 [Pyrithiobac] | 173.3 | 167.1 | 166.7 |  |  |
| CC1COCc2cc3c(cc21)C(C)(C)C(C)C3(C)C (stereo not given) |  |  |  |  | 163.2 |

| Compound | collision cross section in nitrogen [1] [Å²] | collision cross section in nitrogen [2] [Å²] | collision cross section in nitrogen [3] [Å²] | collision cross section in nitrogen [4] [Å²] | collision cross section in nitrogen [5] [Å²] |
| --- | --- | --- | --- | --- | --- |
| CC(C)(C)c1ccc(OC2CCCCC2O)cc1 (stereo not given) [2-(4-tert-Butylphenoxy)cyclohexanol] | 179.8 |  |  |  |  |
| CN(C)c1ccc(C(=N)c2ccc(N(C)C)cc2)cc1 [Auramine hydrochloride] |  | 168.3 | 169.8 |  |  |
| Oc1ccc(Nc2ccccc2)cc1 [4-Anilinophenol] |  |  |  | 147.4 | 140.4 |
| CN(C)C(=O)Nc1ccc(Oc2ccc(Cl)cc2)cc1 [Chloroxuron] | 183.1 | 175.3 | 174.9 |  |  |
| CC#Cc1cc(C)nc(Nc2ccccc2)n1 [Mepanipyrim] |  | 152.6 | 153.1 | 160.6 | 147.3 |
| Cc1nc(N(C)C)nc(OC(=O)N(C)C)c1C [Pirimicarb] | 164.2 | 152 | 156.4 |  |  |
| CCc1cccc(C)c1N(C(=O)CCl)[C@@H](C)COC [S-Metolachlor] | 172.5 | 159.5 | 160.1 |  |  |
| Oc1ccc(Cl)cc1Cc1ccccc1 [Clorophene] |  |  |  | 149.3 |  |
| COc1nc(C)nc(N)n1 [2-Amino-4-methoxy-6-methyl-1,3,5-triazine] |  | 122.7 | 123.4 |  |  |
| CCNc1nc(NC(C)C)nc(OC)n1 [Atraton] | 168.1 |  | 150.5 |  |  |
| C=CCc1ccccc1O [2-Allylphenol] |  |  |  | 128.1 |  |
| CCOC(=O)CC(SP(=S)(OC)OC)C(=O)OCC (stereo not given) [Malathion] | 172.2 |  |  |  |  |
| Cc1ccc(N/N=c2\c(=O)cc/c(=N/Nc3ccc(S(=O)(=O)O)cc3)c2=O)c(C)c1 [C.I. Acid Orange 24, monosodium salt] |  |  |  | 221 |  |
| Cc1c(-c2cccnc2)c2ccccc2n1CCCCC(=O)O |  | 176.6 | 176.7 | 183.7 |  |
| CC(C)(COCC1CO1)COCC1CO1 (stereo not given) [Neopentyl glycol diglycidyl ether] | 148.2 |  |  |  |  |

Next, values leading:

| collision cross section in nitrogen [1] [Å²] | collision cross section in nitrogen [2] [Å²] | collision cross section in nitrogen [3] [Å²] | collision cross section in nitrogen [4] [Å²] | collision cross section in nitrogen [5] [Å²] | Compound |
| --- | --- | --- | --- | --- | --- |
| 160.1 |  |  |  |  | C=CC(=O)N1CN(C(=O)C=C)CN(C(=O)C=C)C1 [Hexahydro-1,3,5-tris(1-oxoallyl)-1,3,5-triazine] |
| 176.6 |  |  | 165 |  | CCCCNC(=O)NS(=O)(=O)c1ccc(C)cc1 [Tolbutamide] |
|  |  |  | 162.3 |  | CCCCCCCCCCCC(=O)OCC [Ethyl dodecanoate] |
|  |  |  | 169.2 |  | CCCCCCCCCCCCCCCC(=O)O [Hexadecanoic acid] |
| 220.4 | 215.9 | 216 | 206.2 |  | O=C(N[C@@H](Cc1ccccc1)[C@@H](O)C(=O)N1C[C@@H](O)[C@@H](O)C1)c1cc2cc(Cl)ccc2[nH]1 [Ingliforib] |
| 185 | 174.6 |  | 177.7 |  | CC(C)OP(=O)(CP(=O)(OC(C)C)OC(C)C)OC(C)C [Tetraisopropyl methylenediphosphonate] |
|  | 141.4 | 141.5 |  |  | CCOc1ccc(NC(C)=O)cc1 [Phenacetin] |
| 226.8 |  |  | 194.2 |  | CC1(C)O[C@@H]2C[C@H]3[C@@H]4C[C@H](F)C5=CC(=O)C=C[C@]5(C)[C@@]4(F)[C@@H](O)C[C@]3(C)[C@]2(C(=O)CO)O1 [Fluocinolone acetonide] |
|  |  | 161.8 | 157.7 |  | C[C@]1(Cn2ccnn2)[C@H](C(=O)O)N2C(=O)C[C@H]2S1(=O)=O [Tazobactam sodium] |
|  |  |  | 173.9 |  | CCCCCCCCc1ccc(S(=O)(=O)O)cc1 [Sodium 4-octylbenzenesulfonate] |
|  |  |  | 137 |  | CCCC(CCC)C(=O)O [Sodium valproate] |
| 180.8 |  |  |  |  | O=C(OCCOCCOC(=O)c1ccccc1)c1ccccc1 [Diethylene glycol dibenzoate] |
| 172 | 167.5 | 167.2 |  |  | OC(Cn1cncn1)(Cn1cncn1)c1ccc(F)cc1F [Fluconazole] |
| 216.8 |  | 177.6 |  |  | C[C@@H]1C[C@H]2[C@@H]3CCC4=CC(=O)C=C[C@]4(C)[C@@]3(F)[C@@H](O)C[C@]2(C)[C@@]1(O)C(=O)CO [Dexamethasone] |
| 176.2 |  | 178 |  |  | C#CCOC(=O)[C@@H](C)Oc1ccc(Oc2ncc(Cl)cc2F)cc1 [Clodinafop-propargyl] |
